Assay results as given in ChEMBL document CHEMBL1201862, “PubChem BioAssay data set” (2004).
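Exposure lasted 48 hours, with cells grown in 96-well plates and compounds tested at five concentrations. The concentration for 50% growth inhibition is given as GI50.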 Activity calls are given as the source filed them. Cut-off read from the data, not from the text of the source: active = GI50 up to about 1.1 µM and inactive = higher.

How the values were obtained:
Experiment in all cases: NCI-60 cell line screen, 48 h
A549 = tested on: A549
ACHN = tested on: ACHN
HCT-15 = tested on: HCT-15
MCF7 = tested on: MCF7
MDA-N = tested on: MDA-N
Malme-3M = tested on: Malme-3M
NCI-H226 = tested on: NCI-H226
NCI-H23 = tested on: NCI-H23
NCI/ADR-RES = tested on: NCI/ADR-RES
OVCAR-4 = tested on: OVCAR-4
OVCAR-8 = tested on: OVCAR-8
PC-3 = tested on: PC-3
SF-295 = tested on: SF-295
SNB-75 = tested on: SNB-75
TK-10 = tested on: TK-10
UACC-257 = tested on: UACC-257
UACC-62 = tested on: UACC-62
UO-31 = tested on: UO-31
KM12 = tested on: KM12
SW-620 = tested on: SW-620

| SMILES | GI50 (A549) | GI50 (ACHN) | GI50 (HCT-15) [µM] | GI50 (MCF7) | GI50 (MDA-N) | GI50 (Malme-3M) | GI50 (NCI-H226) | GI50 (NCI-H23) | GI50 (NCI/ADR-RES) | GI50 (OVCAR-4) | GI50 (OVCAR-8) | GI50 (PC-3) | GI50 (SF-295) | GI50 (SNB-75) | GI50 (TK-10) | GI50 (UACC-257) | GI50 (UACC-62) | GI50 (UO-31) | GI50 (KM12) | GI50 (SW-620) |
| --- | --- | --- | --- | --- | --- | --- | --- | --- | --- | --- | --- | --- | --- | --- | --- | --- | --- | --- | --- | --- |
| O=C1/C(=C\Oc2ccc(F)cc2)N2CCC1CC2 | > 100 µM (inactive) | 76.2 µM (inactive) | 70.6 | 49 µM (inactive) | 47.2 µM (inactive) | 33.3 µM (inactive) | 35.5 µM (inactive) | 54.5 µM (inactive) | 46.2 µM (inactive) | 46.8 µM (inactive) | 85.1 µM (inactive) | > 100 µM (inactive) | > 100 µM (inactive) | 24.8 µM (inactive) | 55.3 µM (inactive) | 23.7 µM (inactive) | 25.9 µM (inactive) | 45.1 µM (inactive) | – | – |
| CCOC(=O)/C(=N\Nc1ccc(-n2c(C)nc3ccccc3c2=O)cc1)C(C)=O | 49.9 µM (inactive) | 32.4 µM (inactive) | 37.7 | 37.7 µM (inactive) | 29 µM (inactive) | – | 18.7 µM (inactive) | 50.5 µM (inactive) | 18.1 µM (inactive) | – | 19.6 µM (inactive) | 34.8 µM (inactive) | 33 µM (inactive) | 17.2 µM (inactive) | 20.9 µM (inactive) | 26.4 µM (inactive) | 29.8 µM (inactive) | 29.1 µM (inactive) | 17.7 µM (inactive) | 61.5 µM (inactive) |
| CCN(C(=S)N[C@H](C(=O)N[C@@H](C)C(=O)OC)C(C)C)c1ccccc1 | > 100 µM (inactive) | 64.4 µM (inactive) | 63.1 | 87.3 µM (inactive) | 91.2 µM (inactive) | 21.8 µM (inactive) | > 100 µM (inactive) | > 100 µM (inactive) | > 100 µM (inactive) | > 100 µM (inactive) | 21.8 µM (inactive) | 64.9 µM (inactive) | > 100 µM (inactive) | – | 88.5 µM (inactive) | 44.7 µM (inactive) | 76.7 µM (inactive) | 60.8 µM (inactive) | > 100 µM (inactive) | 59.7 µM (inactive) |
| CC(C)=CC(=O)c1[nH]c2ccccc2c1CC(=O)NCCc1cn(C(c2ccccc2)(c2ccccc2)c2ccccc2)cn1 | 2.87 µM (inactive) | 3.54 µM (inactive) | 3.89 | 2.99 µM (inactive) | 2.91 µM (inactive) | 5.78 µM (inactive) | 2.94 µM (inactive) | 4.69 µM (inactive) | 3.17 µM (inactive) | 3.86 µM (inactive) | 3.96 µM (inactive) | 2.46 µM (inactive) | 4.57 µM (inactive) | – | 6.76 µM (inactive) | 3.67 µM (inactive) | 1.97 µM (inactive) | 3.55 µM (inactive) | 3.29 µM (inactive) | 3.74 µM (inactive) |
| C/C(=N\NC(=S)NCCNC(=S)N/N=C(\C)c1ccccn1)c1ccccn1 | 3.21 µM (inactive) | 1.26 µM (inactive) | 1.84 | 4.39 µM (inactive) | 4.51 µM (inactive) | 2.54 µM (inactive) | – | 4.41 µM (inactive) | 1.92 µM (inactive) | 2.9 µM (inactive) | 1.56 µM (inactive) | 3.07 µM (inactive) | 3.45 µM (inactive) | 1.73 µM (inactive) | 1.04 µM (active) | 2.61 µM (inactive) | 2.62 µM (inactive) | 1.43 µM (inactive) | 3.87 µM (inactive) | 5.04 µM (inactive) |
| CC(=O)c1ccc2c3c1O[C@H]1c4[nH]c5ccccc5c4C[C@@]4(O)[C@@H](C2)N(CC2CC2)CC[C@]314 | 1.15 µM (inactive) | 17.2 µM (inactive) | 8.67 | 16.7 µM (inactive) | 17.7 µM (inactive) | 21.3 µM (inactive) | 17.1 µM (inactive) | 17.7 µM (inactive) | 8.67 µM (inactive) | 20.6 µM (inactive) | 13.6 µM (inactive) | 10.1 µM (inactive) | 15.6 µM (inactive) | – | 18.2 µM (inactive) | 16.8 µM (inactive) | 16.5 µM (inactive) | 15.3 µM (inactive) | 21.3 µM (inactive) | 0.179 µM (active) |
| CN(C(=O)Cc1cccc(N=C=S)c1)[C@H]1CCCC[C@@H]1N1CCCC1 | 16.4 µM (inactive) | 14.1 µM (inactive) | 14.5 | 13 µM (inactive) | 14.1 µM (inactive) | 22.4 µM (inactive) | – | 14.2 µM (inactive) | 24.8 µM (inactive) | 14.7 µM (inactive) | 16.2 µM (inactive) | 15.2 µM (inactive) | 27.6 µM (inactive) | 14.1 µM (inactive) | 11.9 µM (inactive) | 13.5 µM (inactive) | 15.7 µM (inactive) | 14.7 µM (inactive) | 17.9 µM (inactive) | 11.6 µM (inactive) |
| C/C1=C\CC[C@@]2(C)O[C@@H]2C[C@@H]2[C@H](C/C(C)=C/CC1)OC(=O)C21CC1 | > 100 µM (inactive) | 50.6 µM (inactive) | 27.7 | 53.5 µM (inactive) | 91.4 µM (inactive) | > 100 µM (inactive) | – | – | > 100 µM (inactive) | – | > 100 µM (inactive) | > 100 µM (inactive) | > 100 µM (inactive) | > 100 µM (inactive) | > 100 µM (inactive) | > 100 µM (inactive) | 90.8 µM (inactive) | 92.3 µM (inactive) | > 100 µM (inactive) | 60.7 µM (inactive) |
| c1ccc(NCCSc2nc3ccccc3s2)cc1 | 37.7 µM (inactive) | 43.8 µM (inactive) | 18 | 25.8 µM (inactive) | 36.9 µM (inactive) | 44.9 µM (inactive) | – | 29 µM (inactive) | 35.9 µM (inactive) | 49.8 µM (inactive) | 79.1 µM (inactive) | 55.2 µM (inactive) | > 100 µM (inactive) | > 100 µM (inactive) | 23.6 µM (inactive) | 22.1 µM (inactive) | 66.5 µM (inactive) | 35 µM (inactive) | 30.9 µM (inactive) | 58.3 µM (inactive) |
| S=C(N1CCN(c2cccc(Cl)c2)CC1)N1CCN(c2cccc(Cl)c2)CC1 | 68.1 µM (inactive) | 50.8 µM (inactive) | 57.3 | 37.1 µM (inactive) | > 100 µM (inactive) | 21.2 µM (inactive) | 22 µM (inactive) | > 100 µM (inactive) | > 100 µM (inactive) | 28.9 µM (inactive) | > 100 µM (inactive) | 32.7 µM (inactive) | 39.3 µM (inactive) | – | 43.4 µM (inactive) | 77.3 µM (inactive) | 83 µM (inactive) | 24 µM (inactive) | 24.4 µM (inactive) | > 100 µM (inactive) |
| COC(=O)C1=Nc2c(C)nn(-c3ccccc3)c2N=C(c2ccccc2)C1 | > 10 µM (inactive) | > 10 µM (inactive) | > 10 | > 10 µM (inactive) | > 10 µM (inactive) | > 10 µM (inactive) | – | > 10 µM (inactive) | > 10 µM (inactive) | > 10 µM (inactive) | > 10 µM (inactive) | > 10 µM (inactive) | > 10 µM (inactive) | > 10 µM (inactive) | > 10 µM (inactive) | > 10 µM (inactive) | > 10 µM (inactive) | – | > 10 µM (inactive) | > 10 µM (inactive) |
| COc1cc(/C=C/c2nc(NC(=S)Nc3ccccc3)nnc2C)cc(OC)c1OC | 23.8 µM (inactive) | 18.2 µM (inactive) | 11.2 | 13.9 µM (inactive) | 48.2 µM (inactive) | 23.9 µM (inactive) | 23.7 µM (inactive) | 17.3 µM (inactive) | 28.4 µM (inactive) | 18.7 µM (inactive) | 20.8 µM (inactive) | 14.3 µM (inactive) | 50.1 µM (inactive) | – | 41.4 µM (inactive) | 30.3 µM (inactive) | 14.1 µM (inactive) | 4.36 µM (inactive) | 14.5 µM (inactive) | 38.1 µM (inactive) |
| CCOC(=O)c1c(N)nn2c1cc1cccccc12 | 36.8 µM (inactive) | 27.9 µM (inactive) | 32.3 | 16 µM (inactive) | 41.5 µM (inactive) | 27.8 µM (inactive) | – | 29.3 µM (inactive) | 25.9 µM (inactive) | 33.6 µM (inactive) | 24.8 µM (inactive) | 23.6 µM (inactive) | 25.1 µM (inactive) | – | 19.5 µM (inactive) | 27.4 µM (inactive) | 23.6 µM (inactive) | – | 20.8 µM (inactive) | 32.5 µM (inactive) |
| CC(C)[C@H]1NC(=O)[C@H]2N=C(O[C@@H]2C)[C@@H]2CCCN2C(=O)[C@H](Cc2ccccc2)NC(=O)[C@@H]2CSC(=N2)[C@@H](Cc2ccccc2)NC(=O)[C@@H]2CSC1=N2 | 84.5 µM (inactive) | > 100 µM (inactive) | > 100 | > 100 µM (inactive) | > 100 µM (inactive) | > 100 µM (inactive) | > 100 µM (inactive) | > 100 µM (inactive) | 86.5 µM (inactive) | 38.2 µM (inactive) | > 100 µM (inactive) | 37.5 µM (inactive) | > 100 µM (inactive) | – | > 100 µM (inactive) | > 100 µM (inactive) | 50 µM (inactive) | 59.8 µM (inactive) | 88.1 µM (inactive) | 86.5 µM (inactive) |
| C/C=C\C(CC(=O)NCC(=O)c1c[nH]c2ccccc12)CC(=O)OC (stereo not drawn) | > 100 µM (inactive) | > 100 µM (inactive) | > 100 | > 100 µM (inactive) | > 100 µM (inactive) | > 100 µM (inactive) | – | > 100 µM (inactive) | > 100 µM (inactive) | > 100 µM (inactive) | > 100 µM (inactive) | > 100 µM (inactive) | > 100 µM (inactive) | > 100 µM (inactive) | > 100 µM (inactive) | > 100 µM (inactive) | > 100 µM (inactive) | > 100 µM (inactive) | > 100 µM (inactive) | > 100 µM (inactive) |
